Common to all, as to assay type: cell-based
For one test, the system named is Corynebacterium xerosis. In words: MIC in the agar incorporation test. How it is done:
(§1) Determination of Minimum Inhibitory Concentration (MIC Values) in the Agar Incorporation Test
(§2) 1% stock solutions of the substances are prepared in an appropriate solvent and diluted in serial dilutions 1:2 (to yield end concentrations in the agar of 500-1.9 ppm). 0.3 ml of each dilution step is mixed with 15 ml of nutrient medium while the latter is still liquid. After the nutrient medium has solidified, 10 μl of each test strain in 0.85% NaCl solution are spotted onto the agar medium.
(§3) The plates are incubated at 37° C. for 24 hours and then the highest dilution (lowest concentration) of the test substance at which growth is no longer observable is determined.
(§4) Test Organisms: Staphylococcus aureus ATCC 6583 Staphylococcus epidermidis ATCC 12228 Corynebacterium xerosis ATCC 373 Propionibacterium acnes ATCC Escherichia coli ATCC 10536 Salmonella choleraesuis ATCC Klebsiella pneumoniae ATCC *Candida albicans ATCC 10231
(§5) *Aspergillus niger ATCC 6275

The test system of a further test is Propionibacterium acnes. In words: MIC in the agar incorporation test. The note with it: Cutibacterium acnes, read-out: MIC Propionibacterium acnes. How it is done:
as §1, §2, §3, §4, §5

The next test concerns Staphylococcus epidermis. Kind of test: MIC in the agar incorporation test. On the procedure: as §1, §2, §3, §4, §5
Test [1] relates to Corynebacterium minutissimum. In words: MIC in the agar incorporation test. The note with it: read-out: MIC Corynebacterium minutissimum.
The subject of another test is Staphylococcus aureus. Kind of test: MIC in the agar incorporation test. On the procedure:
as §1, §2, §3, §4, §5

A further test concerns Escherichia coli. Kind of test: MIC in the agar incorporation test. The following applies: ATCC10536, 24 h, read-out: MIC Escherichia coli. On the procedure:
as §1, §2, §3, §4, §5

In a further test the test system is Porphyromnas gingivalis. In words: MIC against oral microorganisms via broth dilution. The following applies: read-out: MIC Porphyromnas gingivalis. How it is done:
(§6) Determination of the Minimum Inhibition Concentration (MIC Value) Against Different Oral Microorganisms Via Broth Dilution
(§7) 1500 ppm stock solutions of the substances are prepared in ethanol and pipetted into the growth medium to yield concentrations between 0.94 and 15 ppm. Bacteria are taken from blood agar plates with cotton swabs and adjusted in the appropriate growth medium to yield an optical density corresponding to McFarland 0.5. This suspension is directly used in the case of F. nucleatum and P. nigrescens. For the other strains, the suspension is diluted 1:20. 0.1 ml of these bacterial suspensions are added to 2 ml of the substance solutions. After the incubation time, the tubes are assessed for growth (turbidity).
(§8) Test Organisms: *Actinobacillus actinomycetemcomitans ATCC 43718 *Stretococcus gordonii ATCC 10558 *Streptococcus mutans ATCC 33402 Actinomyces viscosus ATCC 43146 Fusobacterium nucleatum subsp. polymorphum ATCC 10953 Porphyromonas gingivalis ATCC 33277
(§9) Prevotella nigrescens ATCC 33563

The test system of another test is Streptococcus mutans. Kind of test: MIC against oral microorganisms via broth dilution. On the procedure: as §6, §7, §8, §9
Background: Dilution methods test growth across graded concentrations, often in twofold steps.

Another test concerns Actinomyces viscosus. Kind of test: MIC against oral microorganisms via broth dilution. On the procedure: as §6, §7, §8, §9
Another test deals with Prevotella nigrescens. Kind of test: MIC against oral microorganisms via broth dilution. On the procedure:
as §6, §7, §8, §9

The next test relates to Streptococcus gordonii. In words: MIC against oral microorganisms via broth dilution. How it is done: as §6, §7, §8, §9
The subject of the next test is Salmonella choleraesuis. Kind of test: MIC in the agar incorporation test. The note with it: Salmonella enterica, Mueller Hinton agar, 24 hours at 37° C. On the procedure: as §1, §2, §3, §4, §5
The test system of the next test is Klebsiella pneumoniae. In words: MIC in the agar incorporation test. The note with it: Mueller Hinton agar, 24 hours at 37° C. How it is done: as §1, §2, §3, §4, §5
For test [2], the system named is Fusobacterium nucleatum subsp. polymorphum. In words: MIC against oral microorganisms via broth dilution. How it is done:
as §6, §7, §8, §9

Setting [3] is: ATCC373, 24 h, read-out: MIC Corynebacterium xerosis.
The mark [4] stands for this setting: ATCC12228, 24 h, read-out: MIC Staphylococcus epidermis.
Where [5] appears, read: ATCC6583, 24 h, read-out: MIC Staphylococcus aureus.
Where [6] appears, read: ATCC33402, 24 h, read-out: MIC Streptococcus mutans.
Setting [7] is: ATCC43146, read-out: MIC Actinomyces viscosus.
Where [8] appears, read: ATCC33563, read-out: MIC Prevotella nigrescens.
[9] abbreviates: ATCC10558, 24 h, read-out: MIC Streptococcus gordonii.
The mark [10] stands for this setting: agar incorporation, Mueller Hinton agar, 24 hours at 37° C.

Like-named read-outs stand apart in the source and are kept apart here.

On to `C[n+]1ccccc1COc1ccccc1/C=C/c1ccc(-c2ccc(/C=C/c3ccccc3OCc3cccc[n+]3C)cc2)cc1` [formula 32], for which the MIC in the test on Corynebacterium xerosis (setting [3]) is 100 µg/mL; in the test on Propionibacterium acnes (24 h), 100 µg/mL; in the test with Staphylococcus epidermis (setting [4]), 50 µg/mL; in [1] (24 h), 200 µg/mL.

With `C[n+]1ccc(Oc2ccccc2/C=C/c2ccc(-c3ccc(/C=C/c4ccccc4Oc4cc[n+](C)cc4)cc3)cc2)cc1` [formula 34], the MIC came to 3.1 µg/mL with Corynebacterium xerosis (setting [3]); 3.1 µg/mL in the test with Staphylococcus aureus (setting [5]); 50 µg/mL in the test with Escherichia coli; 1.6 µg/mL in the test with Propionibacterium acnes (24 h); 3.1 µg/mL in the test on Staphylococcus epidermis (setting [4]); 7.5 µg/mL in the test on Porphyromnas gingivalis. Also, the MIC in the test with Streptococcus mutans (setting [6]) was 1.9 µg/mL; in the test with Actinomyces viscosus (setting [7]), 1.9 µg/mL; in the test with Prevotella nigrescens (setting [8]) it was 3.8 µg/mL; in the test on Streptococcus gordonii (setting [9]), 15 µg/mL; in [1] (24 h) it was 3.1 µg/mL.

As for `COc1cccc(/C=C/c2ccc(/C=C/c3cccc(OC)c3OCCCN(C)C)cc2)c1OCCCN(C)C` [formula 27], the MIC with Salmonella choleraesuis amounted to 200 µg/mL; in the test with Corynebacterium xerosis (ATCC373, agar incorporation, Mueller Hinton agar, 24 hours at 37° C., ATCC 373, read-out: MIC Corynebacterium xerosis), 3.1 µg/mL; in the test on Staphylococcus aureus (ATCC6583, agar incorporation, Mueller Hinton agar, 24 hours at 37° C., ATCC 6583, read-out: MIC Staphylococcus aureus), 12.5 µg/mL; in the test with Klebsiella pneumoniae it was 25 µg/mL; in the test with Propionibacterium acnes (setting [10]), 6.3 µg/mL; in the test with Staphylococcus epidermis (ATCC12228, agar incorporation, Mueller Hinton agar, 24 hours at 37° C., ATCC 12228, read-out: MIC Staphylococcus epidermis), 12.5 µg/mL. Also, the MIC is 7.5 µg/mL in test [2] (ATCC10953, broth dilution 0.94-15 ppm, 7-10 days at 37° C. anaerobically, ATCC 10953, read-out: MIC Fusobacterium nucleatum subsp. polymorphum); 7.5 µg/mL in the test with Porphyromnas gingivalis (broth dilution 0.94-15 ppm, Columbia bouillon, 7-10 days at 37° C. anaerobically, ATCC 33277); 15 µg/mL in the test with Streptococcus mutans (ATCC33402, broth dilution 0.94-15 ppm, 24 h aerobically with 10% CO2, ATCC 33402, read-out: MIC Streptococcus mutans); 7.5 µg/mL with Actinomyces viscosus (ATCC43146, broth dilution 0.94-15 ppm, 7-10 days at 37° C. anaerobically, ATCC 43146, read-out: MIC Actinomyces viscosus); 3.8 µg/mL in the test with Prevotella nigrescens (ATCC33563, broth dilution 0.94-15 ppm, Columbia bouillon, 7-10 days at 37° C. anaerobically, ATCC 33563, read-out: MIC Prevotella nigrescens); 15 µg/mL in the test on Streptococcus gordonii (ATCC10558, broth dilution 0.94-15 ppm, 24 h aerobically with 10% CO2, ATCC 10558, read-out: MIC Streptococcus gordonii). For the same compound, in test [1] (setting [10]), the MIC is 3.1 µg/mL.

For `COc1cccc(/C=C/c2ccc(-c3ccc(/C=C/c4cccc(OC)c4OCCCN(C)C)cc3)cc2)c1OCCCN(C)C` [formula 31], the MIC in the test on Corynebacterium xerosis (setting [3]) came to 125 µg/mL; in the test with Staphylococcus aureus (setting [5]) it was 62.5 µg/mL; in the test on Propionibacterium acnes (24 h) it was 7.8 µg/mL; with Staphylococcus epidermis (setting [4]), 125 µg/mL; in [2] (ATCC10953, read-out: MIC Fusobacterium nucleatum subsp. polymorphum), 15 µg/mL; in the test on Porphyromnas gingivalis it was 1.9 µg/mL. Besides, the MIC turned out to be 7.5 µg/mL with Streptococcus mutans (setting [6]); 3.8 µg/mL with Actinomyces viscosus (setting [7]); 3.75 µg/mL in the test on Prevotella nigrescens (setting [8]); 11.2 µg/mL in the test on Streptococcus gordonii (setting [9]); 15.6 µg/mL in test [1] (24 h).

As a reminder, the MIC is the least concentration at which growth counts as inhibited.

These data come from US20070258912A1, “Use of Fluorescent Whitening Agents as Antimicrobials” (priority 2004, published 2007).
